In ChEMBL document CHEMBL4765227, “Hit to lead optimization of a series of N-[4-(1,3-benzothiazol-2-yl)phenyl]acetamides as monoacylglycerol lipase inhibitors with potential anticancer activity” (Eur J Med Chem, 2016):

Tests used:
Type in all cases: functional
Conditions in all cases: read-out: GI
[1] = system: OVCAR-3; assay: Growth inhibition of human OVCAR-3 cells at 10 uM incubated for 48 hrs by sulforhodamine B assay relative to control
[2] = system: SR; assay: Growth inhibition of human SR cells at 10 uM incubated for 48 hrs by sulforhodamine B assay relative to control
[3] = system: OVCAR-8; assay: Growth inhibition of human OVCAR-8 cells at 10 uM incubated for 48 hrs by sulforhodamine B assay relative to control
[4] = system: HCT-15; assay: Growth inhibition of human HCT-15 cells at 10 uM incubated for 48 hrs by sulforhodamine B assay relative to control
[5] = system: ACHN; assay: Growth inhibition of human ACHN cells at 10 uM incubated for 48 hrs by sulforhodamine B assay relative to control
[6] = system: HOP-92; assay: Growth inhibition of human HOP-92 cells at 10 uM incubated for 48 hrs by sulforhodamine B assay relative to control
[7] = system: SN12C; assay: Growth inhibition of human SN12C cells at 10 uM incubated for 48 hrs by sulforhodamine B assay relative to control
[8] = system: RXF 393; assay: Growth inhibition of human RXF 393 cells at 10 uM incubated for 48 hrs by sulforhodamine B assay relative to control
[9] = system: Malme-3M; assay: Growth inhibition of human Malme-3M cells at 10 uM incubated for 48 hrs by sulforhodamine B assay relative to control
[10] = system: SNB-75; assay: Growth inhibition of human SNB-75 cells at 10 uM incubated for 48 hrs by sulforhodamine B assay relative to control
[11] = system: OVCAR-4; assay: Growth inhibition of human OVCAR-4 cells at 10 uM incubated for 48 hrs by sulforhodamine B assay relative to control
[12] = system: Hs-578T; assay: Growth inhibition of human Hs-578T cells at 10 uM incubated for 48 hrs by sulforhodamine B assay relative to control
[13] = system: SW-620; assay: Growth inhibition of human SW-620 cells at 10 uM incubated for 48 hrs by sulforhodamine B assay relative to control
[14] = system: NCI-H322M; assay: Growth inhibition of human NCI-H322M cells at 10 uM incubated for 48 hrs by sulforhodamine B assay relative to control
[15] = system: DU-145; assay: Growth inhibition of human DU-145 cells at 10 uM incubated for 48 hrs by sulforhodamine B assay relative to control
[16] = system: HOP-62; assay: Growth inhibition of human HOP-62 cells at 10 uM incubated for 48 hrs by sulforhodamine B assay relative to control
[17] = system: SF-268; assay: Growth inhibition of human SF-268 cells at 10 uM incubated for 48 hrs by sulforhodamine B assay relative to control
[18] = system: PC-3; assay: Growth inhibition of human PC-3 cells at 10 uM incubated for 48 hrs by sulforhodamine B assay relative to control
[19] = system: CAKI-1; assay: Growth inhibition of human CAKI-1 cells at 10 uM incubated for 48 hrs by sulforhodamine B assay relative to control
[20] = system: M14; assay: Growth inhibition of human M14 cells at 10 uM incubated for 48 hrs by sulforhodamine B assay relative to control
[21] = system: COLO 205; assay: Growth inhibition of human COLO 205 cells at 10 uM incubated for 48 hrs by sulforhodamine B assay relative to control
[22] = system: SF-295; assay: Growth inhibition of human SF-295 cells at 10 uM incubated for 48 hrs by sulforhodamine B assay relative to control
[23] = system: NCI-H522; assay: Growth inhibition of human NCI-H522 cells at 10 uM incubated for 48 hrs by sulforhodamine B assay relative to control
[24] = system: U-251; assay: Growth inhibition of human U-251 cells at 10 uM incubated for 48 hrs by sulforhodamine B assay relative to control
[25] = system: UACC-257; assay: Growth inhibition of human UACC-257 cells at 10 uM incubated for 48 hrs by sulforhodamine B assay relative to control
[26] = system: A549; assay: Growth inhibition of human A549/ATCC cells at 10 uM incubated for 48 hrs by sulforhodamine B assay relative to control
[27] = system: OVCAR-5; assay: Growth inhibition of human OVCAR-5 cells at 10 uM incubated for 48 hrs by sulforhodamine B assay relative to control
[28] = system: NCI/ADR-RES; assay: Growth inhibition of human NCI/ADR-RES cells at 10 uM incubated for 48 hrs by sulforhodamine B assay relative to control
[29] = system: HL-60(TB); assay: Growth inhibition of human HL-60(TB) cells at 10 uM incubated for 48 hrs by sulforhodamine B assay relative to control
[30] = system: NCI-H23; assay: Growth inhibition of human NCI-H23 cells at 10 uM incubated for 48 hrs by sulforhodamine B assay relative to control
[31] = system: HT-29; assay: Growth inhibition of human HT-29 cells at 10 uM incubated for 48 hrs by sulforhodamine B assay relative to control
[32] = system: HCT-116; assay: Growth inhibition of human HCT-116 cells at 10 uM incubated for 48 hrs by sulforhodamine B assay relative to control
[33] = system: MOLT-4; assay: Growth inhibition of human MOLT-4 cells at 10 uM incubated for 48 hrs by sulforhodamine B assay relative to control
[34] = system: UO-31; assay: Growth inhibition of human UO-31 cells at 10 uM incubated for 48 hrs by sulforhodamine B assay relative to control
[35] = system: LOX IMVI; assay: Growth inhibition of human LOX IMVI cells at 10 uM incubated for 48 hrs by sulforhodamine B assay relative to control
[36] = system: RPMI-8226; assay: Growth inhibition of human RPMI-8226 cells at 10 uM incubated for 48 hrs by sulforhodamine B assay relative to control
[37] = system: KM12; assay: Growth inhibition of human KM12 cells at 10 uM incubated for 48 hrs by sulforhodamine B assay relative to control
[38] = system: MCF7; assay: Growth inhibition of human MCF7 cells at 10 uM incubated for 48 hrs by sulforhodamine B assay relative to control
[39] = system: MDA-MB-231; assay: Growth inhibition of human MDA-MB-231 cells at 10 uM incubated for 48 hrs by sulforhodamine B assay relative to control
[40] = system: HCC 2998; assay: Growth inhibition of human HCC 2998 cells at 10 uM incubated for 48 hrs by sulforhodamine B assay relative to control
[41] = system: NCI-H226; assay: Growth inhibition of human NCI-H226 cells at 10 uM incubated for 48 hrs by sulforhodamine B assay relative to control
[42] = system: MDA-MB-468; assay: Growth inhibition of human MDA-MB-468 cells at 10 uM incubated for 48 hrs by sulforhodamine B assay relative to control
[43] = system: 786-0; assay: Growth inhibition of human 786-0 cells at 10 uM incubated for 48 hrs by sulforhodamine B assay relative to control
[44] = system: SF-539; assay: Growth inhibition of human SF-539 cells at 10 uM incubated for 48 hrs by sulforhodamine B assay relative to control

NS(=O)(=O)c1ccc(NCC(=O)Nc2ccc(-c3nc4ccccc4s3)cc2)cc1
inhibition of growth at 10 µM [1]: 65.7%
inhibition of growth at 10 µM [2]: 84%
inhibition of growth at 10 µM [3]: 17.3%
inhibition of growth at 10 µM [4]: 53.4%
inhibition of growth at 10 µM [5]: -4.96%
inhibition of growth at 10 µM [6]: 26.5%
inhibition of growth at 10 µM [7]: 52.2%
inhibition of growth at 10 µM [8]: 0.08%
inhibition of growth at 10 µM [9]: 46.4%
inhibition of growth at 10 µM [10]: 30.5%
inhibition of growth at 10 µM [11]: 32.8%
inhibition of growth at 10 µM [12]: 1.67%
inhibition of growth at 10 µM [13]: 36.3%
inhibition of growth at 10 µM [14]: 12%
inhibition of growth at 10 µM [15]: 53%
inhibition of growth at 10 µM [16]: -17.8%
inhibition of growth at 10 µM [17]: 74.9%
inhibition of growth at 10 µM [18]: 35.3%
inhibition of growth at 10 µM [19]: 7.14%
inhibition of growth at 10 µM [20]: 54.4%
inhibition of growth at 10 µM [21]: 1.47%
inhibition of growth at 10 µM [22]: 1.17%
inhibition of growth at 10 µM [23]: 164%
inhibition of growth at 10 µM [24]: 28.7%
inhibition of growth at 10 µM [25]: 2.83%
inhibition of growth at 10 µM [26]: 7.37%
inhibition of growth at 10 µM [27]: -5.64%
inhibition of growth at 10 µM [28]: 5.97%
inhibition of growth at 10 µM [29]: 66.6%
inhibition of growth at 10 µM [30]: 25.3%
inhibition of growth at 10 µM [31]: 25.5%
inhibition of growth at 10 µM [32]: 74.9%
inhibition of growth at 10 µM [33]: 93.8%
inhibition of growth at 10 µM [34]: 25.6%
inhibition of growth at 10 µM [35]: 87%
inhibition of growth at 10 µM [36]: 63.3%
inhibition of growth at 10 µM [37]: 38.4%
inhibition of growth at 10 µM [38]: 72.4%
inhibition of growth at 10 µM [39]: 55%
inhibition of growth at 10 µM [40]: 12.4%
inhibition of growth at 10 µM [41]: 16.3%
inhibition of growth at 10 µM [42]: 95.7%
inhibition of growth at 10 µM [43]: 87.9%
inhibition of growth at 10 µM [44]: 8.62%

O=C(CNc1nc(-c2ccc(Cl)cc2)cs1)Nc1ccc(-c2nc3ccccc3s2)cc1
inhibition of growth at 10 µM [1]: 5.97%
inhibition of growth at 10 µM [2]: 10.3%
inhibition of growth at 10 µM [3]: 2.01%
inhibition of growth at 10 µM [4]: -10.2%
inhibition of growth at 10 µM [5]: -5.08%
inhibition of growth at 10 µM [6]: 7.09%
inhibition of growth at 10 µM [7]: -0.85%
inhibition of growth at 10 µM [8]: -6.02%
inhibition of growth at 10 µM [9]: -1.86%
inhibition of growth at 10 µM [10]: 22.2%
inhibition of growth at 10 µM [11]: 29.5%
inhibition of growth at 10 µM [12]: 8.73%
inhibition of growth at 10 µM [13]: 0.12%
inhibition of growth at 10 µM [14]: 8.37%
inhibition of growth at 10 µM [15]: 5.04%
inhibition of growth at 10 µM [16]: -6.21%
inhibition of growth at 10 µM [17]: 9.23%
inhibition of growth at 10 µM [18]: 9.25%
inhibition of growth at 10 µM [19]: 5.79%
inhibition of growth at 10 µM [20]: 11.8%
inhibition of growth at 10 µM [21]: 6.21%
inhibition of growth at 10 µM [22]: 1.37%
inhibition of growth at 10 µM [23]: 6.86%
inhibition of growth at 10 µM [24]: 8.44%
inhibition of growth at 10 µM [25]: -0.39%
inhibition of growth at 10 µM [26]: 0.99%
inhibition of growth at 10 µM [27]: 9.63%
inhibition of growth at 10 µM [28]: 5.81%
inhibition of growth at 10 µM [29]: 0.71%
inhibition of growth at 10 µM [30]: 12.4%
inhibition of growth at 10 µM [31]: -8.34%
inhibition of growth at 10 µM [32]: 4.49%
inhibition of growth at 10 µM [33]: 7.26%
inhibition of growth at 10 µM [34]: 25.1%
inhibition of growth at 10 µM [35]: 4.39%
inhibition of growth at 10 µM [36]: 12.6%
inhibition of growth at 10 µM [37]: 0.97%
inhibition of growth at 10 µM [38]: 70.2%
inhibition of growth at 10 µM [39]: 15.3%
inhibition of growth at 10 µM [40]: 2.47%
inhibition of growth at 10 µM [41]: 19.7%
inhibition of growth at 10 µM [42]: 140%
inhibition of growth at 10 µM [43]: -9.09%
inhibition of growth at 10 µM [44]: 3.03%
